According to patent US12059420B2 (BRISTOL-MYERS SQUIBB COMPANY, priority 2018, dated 2024):

Biological target: T1, human IDO1 (Homo sapiens, UniProt P14902)
T1 construct: expressed in transfected cells
Assay: IDO inhibition assay in HEK293 cells stably expressing human IDO1 (kynurenine production, Ehrlich reagent, absorbance 490 nm)
Type: cell-based
Settings: 20 hours incubation with compound, 500 nM reference standard = 100% inhibition, read-out: IDO1 HEK Human IC50
Method: HEK293 cells were transfected with a pCDNA-based mammalian expression vector harboring human IDO1 cDNA (NM 002164.2) by electroporation. They were cultured in medium (DMEM with 10% FBS) containing 1 mg/ml G418 for two weeks. Clones of HEK293 cells that stably expressed human IDO1 protein were selected and expanded for IDO inhibition assay.
The human IDO1/HEK293 cells were seeded at 10,000 cells per 50 μL per well with RPMI/phenol red free media contains 10% FBS in a 384-well black wall clear bottom tissue culture plate (Matrix Technologies LLC) 100 nL of certain concentration of compound was then added to each well using ECHO liquid handling systems. The cells were incubated for 20 hours in 37° C. incubator with 5% CO2.
The compound treatments were stopped by adding trichloroacetic acid (Sigma-Aldrich) to a final concentration at 0.2%. The cell plate was further incubated at 50° C. for 30 minute. The equal volume supernatant (20 μL) and 0.2% (w/v) Ehrlich reagent (4-dimethylaminobenzaldehyde, Sigma-Aldrich) in glacial acetic acid were mixed in a new clear bottom 384-well plate. This plate was then incubated at RT for 30 minute. The absorbance at 490 nm was measured on Envision plate reader.
Compound IC50 values were calculated using the counts of 500 nM of a reference standard treatment as one hundred percent inhibition, and counts of no compound but DMSO treatment as zero percent inhibition.

T1 sequence (P14902 whole entry): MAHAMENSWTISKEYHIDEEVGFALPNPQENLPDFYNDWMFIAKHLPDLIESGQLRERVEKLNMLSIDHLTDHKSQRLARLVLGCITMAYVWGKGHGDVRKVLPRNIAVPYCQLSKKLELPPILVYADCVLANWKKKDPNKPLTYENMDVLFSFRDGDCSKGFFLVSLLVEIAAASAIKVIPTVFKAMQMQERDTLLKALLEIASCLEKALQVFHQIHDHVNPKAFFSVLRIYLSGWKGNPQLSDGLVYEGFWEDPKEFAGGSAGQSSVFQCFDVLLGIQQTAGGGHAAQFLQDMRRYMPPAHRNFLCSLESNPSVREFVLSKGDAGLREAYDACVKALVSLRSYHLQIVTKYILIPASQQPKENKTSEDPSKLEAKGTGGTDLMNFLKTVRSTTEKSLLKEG

IC50 [nM] | Compound
24.8 | 6-(2-(1H-tetrazol-5-yl)phenyl)-N2- benzyl-N4-(2-fluoropyridin-3-yl)- N2-isobutylpyridine-2,4-diamine, TFA [Example 54]
47.5 | CCC(CC(=O)O)c1cc(Nc2ccc(Cl)cc2)cc(N(Cc2ccccc2)CC(C)C)n1 (racemic) [Example 245, 3-(6-(benzyl(isobutyl)amino)-4-((4-chlorophenyl)amino)pyridin-2-yl)pentanoic acid]
4.7 | CCC(CC(=O)O)c1cc(Nc2ccc(Cl)cc2)cc(N(Cc2ccc(F)cc2)C(C)C)n1 (racemic) [Example 246, 3-(4-((4-chlorophenyl)amino)-6-((4-fluorobenzyl)(isopropyl)amino)pyridin-2-yl)pentanoic acid]
1610 | CCC(CC(=O)O)c1cc(Nc2ccc3nc(C)sc3c2)cc(N(Cc2ccccc2)CC(C)C)n1 (single isomer, unassigned) [Example 243, 3-(6-(benzyl(isobutyl)amino)-4-((2-methylbenzo [d]thiazol-6-yl)amino)pyridin-2-yl)pentanoic acid]
109 | CCC(CC(=O)O)c1cc(NC(=O)Nc2ccc(C)cc2)cc(N(Cc2ccccc2)CC(C)C)n1 (single isomer, unassigned) [Example 244, 3-(6-(benzyl(isobutyl)amino)-4-(3-(p-tolyl)ureido)pyridin-2-yl)pentanoic acid]
11.1 | CCC(CC(=O)O)c1cc(Nc2ccc3nc(C)sc3c2)cc(N(Cc2ccc(F)cc2)C(C)C)n1 (single isomer, unassigned) [Example 247, 3-(6-((4-fluorobenzyl)(isopropyl)amino)-4-((2-methylbenzo [d]thiazol-6-yl)amino)pyridin-2-yl)pentanoic acid]
217 | CCC(CC(=O)O)c1cc(Nc2ccc(Cl)cc2)cc(N(Cc2ccc(F)cc2)CC(C)C)n1 (single isomer, unassigned) [Example 248, 3-(4-((4-chlorophenyl)amino)-6-((4-fluorobenzyl)(isobutyl)amino)pyridin-2-yl)pentanoic acid]
934 | CCC(CC(=O)O)c1cc(Nc2ccc3nc(C)sc3c2)cc(N(Cc2ccc(F)cc2)CC(C)C)n1 (single isomer, unassigned) [Example 249, 3-(6-((4-fluorobenzyl)(isobutyl)amino)-4-((2-methylbenzo [d]thiazol-6-yl)amino)pyridin-2-yl)pentanoic acid]
156 | CCC(CC(=O)O)c1cc(NC(=O)Nc2ccc(C)cc2)cc(N(Cc2ccc(F)cc2)CC(C)C)n1 (single isomer, unassigned) [Example 250, 3-(6-((4-fluorobenzyl)(isobutyl)amino)-4-(3-(p-tolyl)ureido)pyridin-2-yl)pentanoic acid]
45.4 | CCN(Cc1ccccc1)c1cc(NC(=O)Cc2ccc(C)cc2)cc(-c2ccccc2-c2nnn[nH]2)n1 [Example 1, N-(2-(2-(1H-tetrazol-5-yl)phenyl)-6-(benzyl(ethyl)amino)pyridin-4-yl)-2-(p-tolyl)acetamide]
1040 | Cc1ccc(NC(=O)Nc2cc(-c3ccccc3-c3nnn[nH]3)nc(N(CC(C)C)C3CCCCC3)n2)cc1 [Example 2, 1-(6-(2-(1H-tetrazol-5-yl)phenyl)-2-(cyclohexyl(isobutyl)amino)pyrimidin-4-yl)-3-(p-tolyl)urea]
26.3 | Cc1ccc(CC(=O)Nc2cc(-c3ccccc3-c3nnn[nH]3)nc(N(CC(C)C)C3CCCCC3)n2)cc1 [Example 3, N-(6-(2-(1H-tetrazol-5-yl)phenyl)-2-(cyclohexyl(isobutyl)amino)pyrimidin-4-yl)-2-(p-tolyl)acetamide]
952 | CCN(Cc1ccccc1)c1nc(NC(=O)Nc2ccc(C)cc2)cc(-c2ccccc2-c2nnn[nH]2)n1 [Example 4, 1-(6-(2-(1H-tetrazol-5-yl)phenyl)-2-(benzyl(ethyl)amino)pyrimidin-4-yl)-3-(p-tolyl)urea]
89 | CCN(Cc1ccccc1)c1nc(NC(=O)Cc2ccc(C)cc2)cc(-c2ccccc2-c2nnn[nH]2)n1 [Example 7, N-(6-(2-(1H-tetrazol-5-yl)phenyl)-2-(benzyl(ethyl)amino)pyrimidin-4-yl)-2-(p-tolyl)acetamide]
8.5 | Cc1ccc(CC(=O)Nc2cc(-c3ccccc3-c3nnn[nH]3)nc(N(Cc3ccccc3)CC(C)C)n2)cc1 [Example 8, N-(6-(2-(1H-tetrazol-5-yl)phenyl)-2-(benzyl(isobutyl)amino)pyrimidin-4-yl)-2-(p-tolyl)acetamide]
74 | Cc1ccc(C(=O)Nc2cc(-c3ccccc3-c3nnn[nH]3)nc(N(Cc3ccccc3)CC(C)C)n2)c(F)c1 [Example 9, N-(6-(2-(1H-tetrazol-5-yl)phenyl)-2-(benzyl(isobutyl)amino)pyrimidin-4-yl)-2-fluoro-4-methylbenzamide]
404 | Cc1ccc(NC(=O)Nc2cc(-c3ccccc3-c3nnn[nH]3)nc(N(Cc3ccccc3)CC(C)C)n2)cc1 [Example 10, 1-(6-(2-(1H-tetrazol-5-yl)phenyl)-2-(benzyl(isobutyl)amino)pyrimidin-4-yl)-3-(p-tolyl)urea]
18.1 | Cc1ccc(CC(=O)Nc2cc(-c3ccccc3-c3nnn[nH]3)nc(N(Cc3ccccc3)CC(C)C)n2)c(F)c1 [Example 11, N-(6-(2-(1H-tetrazol-5-yl)phenyl)-2-(benzyl(isobutyl)amino)pyrimidin-4-yl)-2-(2-fluoro-4-methylphenyl)acetamide]
7 | CCCN(Cc1ccccc1)c1cc(NC(=O)Nc2ccc(Cl)cc2F)cc(-c2ccccc2-c2noc(=O)[nH]2)n1 [Example 12, 1-(2-(benzyl(propyl)amino)-6-(2-(5-oxo-4,5-dihydro-1,2,4-oxadiazol-3-yl)phenyl)pyridin-4-yl)-3-(4-chloro-2-fluorophenyl)urea]
13.2 | CCCN(Cc1ccc(F)cc1)c1cc(NC(=O)Nc2ccc(Cl)cc2F)cc(-c2ccccc2-c2noc(=O)[nH]2)n1 [Example 13, 1-(4-chloro-2-fluorophenyl)-3-(2-((4-fluorobenzyl)(propyl)amino)-6-(2-(5-oxo-4,5-dihydro-1,2,4-oxadiazol-3-yl)phenyl)pyridin-4-yl)urea]
181 | CCCN(Cc1ccccc1)c1cc(NC(=O)Nc2ccc(C)cc2)cc(-c2ccccc2-c2nsc(=O)[nH]2)n1 [Example 14, 1-(2-(benzyl(propyl)amino)-6-(2-(5-oxo-4,5-dihydro-1,2,4-thiadiazol-3-yl)phenyl)pyridin-4-yl)-3-(p-tolyl)urea]
161 | CCCN(Cc1ccccc1)c1cc(NC(=O)Cc2ccc(C)cc2)cc(-c2ccccc2C(=O)O)n1 [Example 17, 2-(6-(benzyl(propyl)amino)-4-(2-(p-tolyl)acetamido)pyridin-2-yl)benzoic acid]
2430 | CCCN(Cc1ccccc1)c1cc(NC(=O)Nc2ccc(C)cc2)cc(-c2ccccc2C(=O)NS(=O)(=O)N2CCN(C)CC2)n1 [Example 18, 2-(6-(benzyl(propyl)amino)-4-(3-(p-tolyl)ureido)pyridin-2-yl)-N-((4-methylpiperazin-1-yl)sulfonyl)benzamide]
485 | CCCN(Cc1ccccc1)c1cc(NC(=O)Cc2ccc(C)cc2)cc(-c2ccccc2C(=O)NS(=O)(=O)C2CC2)n1 [Example 19, 2-(6-(benzyl(propyl)amino)-4-(2-(p-tolyl)acetamido)pyridin-2-yl)-N-(cyclopropylsulfonyl)benzamide]
594 | CCCN(Cc1ccccc1)c1cc(NC(=O)Nc2ccc(C)cc2)cc(-c2ccccc2C(=O)NS(=O)(=O)C2CC2)n1 [Example 20, 2-(6-(benzyl(propyl)amino)-4-(3-(p-tolyl)ureido)pyridin-2-yl)-N-(cyclopropylsulfonyl)benzamide]
328 | CCCN(Cc1ccccc1)c1cc(NC(=O)Cc2ccc(C)cc2)cc(-c2ccccc2C(=O)NS(C)(=O)=O)n1 [Example 21, 2-(6-(benzyl(propyl)amino)-4-(2-(p-tolyl)acetamido)pyridin-2-yl)-N-(methylsulfonyl)benzamide]
32.4 | Cc1ccc(CC(=O)Nc2cc(-c3ccccc3-c3nnn[nH]3)nc(N(Cc3ccccc3)CC3CC3)n2)cc1 [Example 22, N-(6-(2-(1H-tetrazol-5-yl)phenyl)-2-(benzyl(cyclopropylmethyl)amino)pyrimidin-4-yl)-2-(p-tolyl)acetamide]
16.2 | CCCN(Cc1ccccc1)c1nc(NC(=O)Cc2ccc(C)cc2)cc(-c2ccccc2-c2nnn[nH]2)n1 [Example 23, N-(6-(2-(1H-tetrazol-5-yl)phenyl)-2-(benzyl(propyl)amino)pyrimidin-4-yl)-2-(p-tolyl)acetamide]
256 | CCCN(Cc1ccccc1)c1cc(NC(=O)Nc2ccc(C)cc2)cc(-c2ccccc2C(=O)NS(C)(=O)=O)n1 [Example 24, 2-(6-(benzyl(propyl)amino)-4-(3-(p-tolyl)ureido)pyridin-2-yl)-N-(methylsulfonyl)benzamide]
2910 | CCCN(Cc1ccccc1)c1cc(NC(=O)Cc2ccc(C)cc2)cc(-c2ccccc2C(=O)NS(=O)(=O)N2CCN(C)CC2)n1 [Example 25, 2-(6-(benzyl(propyl)amino)-4-(2-(p-tolyl)acetamido)pyridin-2-yl)-N-((4-methylpiperazin-1-yl)sulfonyl)benzamide]

Compound | IC50 [nM]
1-(2-(2-(1H-tetrazol-5-yl)phenyl)-6- (benzyl(propyl)amino)pyridin-4-yl)-3-(4- ethoxyphenyl)urea [Example 272] | 129
